Experimental data as given in patent publication US6391827B1, “Pyrrolic compounds having a high herbicidal activity and their agronomic use” (Isagro Ricerca S.r.l., priority 1999, dated 2002).

Columns and labels:
Format in all cases: in vivo
Design in all cases: key: 0=0-20% of damage; 1=21-40%; 2=41-60%; 3=61-80%; 4=81-95%; 5=death of the plant treated
Details in all cases: 150 g/hectare, evaluated 21 days after treatment, damage vs blank
[1] = test system: Amarantus retraflexus (AR); test: Herbicidal activity in post-emergence, Amarantus retraflexus
Procedure: (§1) The herbicidal activity of the compounds of the invention was evaluated with respect to both monocotyledon and dicotyledon weeds, in post- and pre-emergence treatment.
(§2) The evaluation tests were carried out according to the following operative procedures.
(§3) Vases (diameter over 10 cm, height 10 cm) containing sandy medium were prepared. One of the following weeds was planted in each of them: Abutilon theofrasti (AT), Amarantus retraflexus (AR), Chenopodium album (CA), Convolvulus sepium (CS), Portulaca oleracea (PO), Solanum nigrum (SN), Ipomea purpurea (IP).
(§4) Water was added to each vase in a suitable quantity for a good germination of the seeds. The vases were divided into two groups, each group containing at least 5 vases for each weed.
(§5) The first group was not treated with herbicide and was used as a comparison (blank).
(§6) The second group of vases was treated fifteen days after sowing (i.e. when the small weed plants, depending on the species, were 10-15 cm high) with a hydroacetone dispersion at 20% by volume of acetone of the product to be evaluated (herbicidal activity in post-emergence). All the vases were kept under observation in a conditioned environment under the following environmental conditions:
(§7) light intensity: 10000 lux
(§8) Every two days, the vases were uniformly watered to ensure a sufficient degree of humidity for a good development of the plants.
(§9) 21 days after treatment, the herbicidal activity was evaluated on the basis of the following scale of values referring to the percentage of damage measured on the treated plants with respect to those not treated (blank): […]

Convolvulus sepium (CS) = test: Herbicidal activity in post-emergence, Convolvulus sepium
Procedure: as §1, §2, §3, §4, §5, §6, §7, §8, §9

Portulaca oleracea (PO) = test: Herbicidal activity in post-emergence, Portulaca oleracea
Procedure: as §1, §2, §3, §4, §5, §6, §7, §8, §9

Solanum nigrum (SN) = test: Herbicidal activity in post-emergence, Solanum nigrum
Procedure: as §1, §2, §3, §4, §5, §6, §7, §8, §9

Chenopodium album (CA) = test: Herbicidal activity in post-emergence, Chenopodium album
Procedure: as §1, §2, §3, §4, §5, §6, §7, §8, §9

Ipomea purpurea (IP) = test: Herbicidal activity in post-emergence, Ipomea purpurea
Procedure: as §1, §2, §3, §4, §5, §6, §7, §8, §9

Abutilon theofrasti (AT) = test: Herbicidal activity in post-emergence, Abutilon theofrasti
Procedure: as §1, §2, §3, §4, §5, §6, §7, §8, §9

C#CCOc1cc(-c2c(Br)c(C(F)(F)F)n(C)c2Cl)c(F)cc1Cl [Compound 17, 4-bromo-3-[4-chloro-2-fluoro-5-(2-propinyloxy)phenyl]-2-chloro-1-methyl-5-trifluoromethyl pyrrole]
5: Herbicidal activity in post-emerqence, AR [1] | Herbicidal activity in post-emerqence, CS (Convolvulus sepium (CS)) | Herbicidal activity in post-emerqence, PO (Portulaca oleracea (PO)) | Herbicidal activity in post-emerqence, SN (Solanum nigrum (SN)) | Herbicidal activity in post-emerqence, CA (Chenopodium album (CA)) | Herbicidal activity in post-emerqence, IP (Ipomea purpurea (IP)) | Herbicidal activity in post-emerqence, AT (Abutilon theofrasti (AT))

CCOC(=O)COc1cc(-c2c(Cl)c(C(F)(F)F)n(C)c2Cl)c(F)cc1Cl [Compound 15, ethyl [2-chloro-5-(2,4-dichloro-1-methyl-5-trifluoro methylpyrrol-3-yl)-4-fluorophenoxy]acetate]
5: Herbicidal activity in post-emerqence, AR [1] | Herbicidal activity in post-emerqence, CS (Convolvulus sepium (CS)) | Herbicidal activity in post-emerqence, PO (Portulaca oleracea (PO)) | Herbicidal activity in post-emerqence, SN (Solanum nigrum (SN)) | Herbicidal activity in post-emerqence, CA (Chenopodium album (CA)) | Herbicidal activity in post-emerqence, IP (Ipomea purpurea (IP)) | Herbicidal activity in post-emerqence, AT (Abutilon theofrasti (AT))

C#CCOc1cc(-c2c(Br)c(C(F)(F)F)n(C)c2Br)c(F)cc1Cl [Compound 5, 3-[4-chloro-2-fluoro-5-(2-propinyloxy)phenyl]-2,4-dibromo-1-methyl-5-trifluoromethylpyrrole]
5: Herbicidal activity in post-emerqence, AR [1] | Herbicidal activity in post-emerqence, CS (Convolvulus sepium (CS)) | Herbicidal activity in post-emerqence, PO (Portulaca oleracea (PO)) | Herbicidal activity in post-emerqence, SN (Solanum nigrum (SN)) | Herbicidal activity in post-emerqence, CA (Chenopodium album (CA)) | Herbicidal activity in post-emerqence, IP (Ipomea purpurea (IP)) | Herbicidal activity in post-emerqence, AT (Abutilon theofrasti (AT))

C#CCOc1cc(-c2c(Cl)c(C(F)(F)F)n(C)c2Cl)c(F)cc1Cl [Compound 14, 3-[4-chloro-2-fluoro-5-(2-propinyloxy)phenyl]-2,4-dichloro-1-methyl-5-trifluoromethyl pyrrole]
5: Herbicidal activity in post-emerqence, AR [1] | Herbicidal activity in post-emerqence, CS (Convolvulus sepium (CS)) | Herbicidal activity in post-emerqence, PO (Portulaca oleracea (PO)) | Herbicidal activity in post-emerqence, SN (Solanum nigrum (SN)) | Herbicidal activity in post-emerqence, CA (Chenopodium album (CA)) | Herbicidal activity in post-emerqence, IP (Ipomea purpurea (IP)) | Herbicidal activity in post-emerqence, AT (Abutilon theofrasti (AT))

CCOC(=O)COc1cc(-c2c(Br)c(C(F)(F)F)n(C)c2Cl)c(F)cc1Cl [Compound 18, ethyl-5-(4-bromo-2-chloro-1-methyl-5-trifluoromethylpyrrol-3-yl)-2-chloro-4-fluorophenoxyacetate]
5: Herbicidal activity in post-emerqence, AR [1] | Herbicidal activity in post-emerqence, CS (Convolvulus sepium (CS)) | Herbicidal activity in post-emerqence, PO (Portulaca oleracea (PO)) | Herbicidal activity in post-emerqence, SN (Solanum nigrum (SN)) | Herbicidal activity in post-emerqence, CA (Chenopodium album (CA)) | Herbicidal activity in post-emerqence, IP (Ipomea purpurea (IP)) | Herbicidal activity in post-emerqence, AT (Abutilon theofrasti (AT))

CCOC(=O)COc1cc(-c2c(Br)c(C(F)(F)F)n(C)c2Br)c(F)cc1Cl [Compound 4, ethyl 2-chloro-5-(2,4-dibromo-1-methyl-5-trifluoromethylpyrrol-3-yl)-4-fluorophenoxy acetate]
5: Herbicidal activity in post-emerqence, AR [1] | Herbicidal activity in post-emerqence, CS (Convolvulus sepium (CS)) | Herbicidal activity in post-emerqence, PO (Portulaca oleracea (PO)) | Herbicidal activity in post-emerqence, SN (Solanum nigrum (SN)) | Herbicidal activity in post-emerqence, CA (Chenopodium album (CA)) | Herbicidal activity in post-emerqence, IP (Ipomea purpurea (IP)) | Herbicidal activity in post-emerqence, AT (Abutilon theofrasti (AT))
